Test results as given in patent publication US7465753B2, “Glycoside-containing liposome” (Otsuka Pharmaceutical Co., Ltd., priority 2003, dated 2008).
Where two headings read alike, the source gives them in different places.

How the values were obtained:
colon26 wild [1] = assay: Cell proliferation inhibitory effect, MTT assay, colon26 wild; type: cell-based; settings: glycoside employed alone, 37° C. for three days
Procedure: A cultured cancer cell line (colon26 wild) was inoculated into a 96-well plate (1×10^4 cells/100 μL/well), and subsequently a cholestanol glycoside (GlcNAcβ1,4GalChol, Fucα1,3GalChol, GalβChol, or Chol) or each type of the cholestanol glycoside liposomes formed in Example 1 was added to the 96-well plate, followed by incubation at 37° C. for three days. Thereafter, the MTT assay was performed, and the number of live cells was determined. The cell proliferation inhibition rate was obtained by use of the following formula. Cell proliferation inhibition rate(CPI rate)(%)=(1−OD of treated cells/OD of non-treated cells)×100

colon26 wild [2] = settings: glycoside alone; conventionally shown; cited from earlier work

SMILES | cell proliferation inhibitory effect (colon26 wild [1]) | cell proliferation inhibitory effect (colon26 wild [2])
CC(C)CCC[C@@H](C)[C@H]1CC[C@H]2[C@@H]3CC[C@H]4C[C@@H](O[C@@H]5O[C@H](CO)[C@H](O)[C@H](O[C@@H]6O[C@@H](C)[C@@H](O)[C@@H](O)[C@@H]6O)[C@H]5O)CC[C@]4(C)[C@H]3CC[C@]12C [Fucα1,3GalChol, 3-β-cholestanyl 3-O-(α-L-fucopyranosyl)-β-D-galactopyranoside] | scarcely exhibits cell proliferation inhibitory effect | –
CC(=O)N[C@H]1[C@H](O[C@@H]2[C@H](O)[C@@H](O)[C@H](O[C@H]3CC[C@@]4(C)[C@@H](CC[C@@H]5[C@@H]4CC[C@]4(C)[C@@H]([C@H](C)CCCC(C)C)CC[C@@H]54)C3)O[C@@H]2CO)O[C@H](CO)[C@@H](O)[C@@H]1O [GlcNAcβ1,4GalChol, 3-β-cholestanyl 4-O-(2-acetamido-2-deoxy-β-D-glucopyranosyl)-β-D-galactopyranoside] | – | has conventionally been shown to have cell proliferation inhibitory effect
